This is an account of results in patent US7355074B2, “Compounds having aromatic rings and side-chain amide-functionality and a method for transporting monovalent anions across biological membranes using the same” (The University of Maryland, priority 2003, dated 2008).

For one data set, the system named is HEK-293 cells. The experiment in a line: patch-clamp recordings in whole-cell configuration. The class given is cell-based. The source says:
FIG. 11 illustrates voltage clamp recordings in whole cell configuration (HEK-293 cells). (A) Current across membrane after application of calixarene tetrabutylamide 2 at different voltages. From bottom to top, trace denotes currents at −120, −80, −40, 0, 40, 80 and 120 mV, respectively, with saline physiological buffer being used (B) Current across membrane in a sodium glutamate isosmotic-buffer at different voltages. The potential was varied over a range of −120 through +120 mV, with a 40 mV step. (C) Current across membrane in Na2SO4 isosmotic buffer at different voltages. The potential was varied over a range of −120 through +120 mV, with a 40 mV steps. (D) Current across the membrane at +120 mV in application/wash cycle traces from bottom to top denote current in absence of 2, current after first application of 2 (a), following by […] lavage, second application (b), and third application (c). Trace on top denotes current after lavage without application of 2. Baselines of the first and last traces shifted for clarity, saline physiological buffer used.
Electrophysiological Recordings. Patch-Clamp Experiments. HEK 293 cells, plated in […] dishes containing 10 mL of the growth media were maintained at 37° C. with 5% CO2 in the incubator. Growth medium for HEK 293 cells was minimum essential medium supplemented with 10% fetal bovine serum, 100 U mL penicillin and 100 μg/mL streptomycin. Electrophysiological recordings were performed in the whole-cell configuration of the patch-clamp technique using a DAGAN 8900 amplifier (Dagan Corp., Minneapolis, Minn.). The patch electrodes, pulled from borosilicate class capillaries, had resistance of 3-4 MΩ when filled with internal solution containing (in mM): CsCl 110: tetraethylammonium chloride, 20; MgATP. 5:EGTA. 14: HEPES, 20 and titrated to pH 7.4 with CsOH. Approximately 90% of electrode resistance was compensated electronically, so that effective series resistance was less than 1 MΩ. HEK cells were used for experiments 2 to 4 days after plating the cells on the cover sips. Generation of the voltage-clamp protocols and data acquisition were carried out using PCLAMP software (Axon instruments, Inc., Burlingame, Calif.). Sampling frequency was 0.5-2.0 kHz, and current signals were filtered at […] before digitization and storage. All experiments were performed at room temperature (23-25° C.). […] Cells plated on plastic cover slips 915 mm round thermanox, Nunc, Inc., Napierville, Ill.) were transferred to an experimental chamber mounted on the stage of an inverted microscope (Diaphot, Nikon, Nagano, Japan) and were bathed in a solution containing (in mM):NaCl, 137:CaCl2, 2; KCl. 5.4; HEPES, 10; glucose, 10:glucose, 10; MgCl2, 1 (pH 7.4 adjusted with NaOH). The experimental chamber was constantly perfused at a rate of about 1 mL/min with a control bathing solution. In solutions buffered on the cell under recording KCl was omitted and in some experiments NaCl was replaced by isoosmotic amounts of Na2SO4 or Na glutamate. Servo-controlled miniature solenoid valves were used for rapid switching between control and test solutions (delay in solution change was <20 ms). Compound 2 was dissolved in DMSO, and DMSO was added in an equal amount to the control and test solutions.
On the technique in general: In patch-clamp work, channel activity is measured electrically.

Data set [1] in a line: pH-stat fluorescent transport assay with oligophenoxyacetamides (HPTS-loaded liposomes). The class given is biochemical. On the procedure:
FIGS. 1A and 1B are derived from of pH-stat fluorescent assays with oligophenoxyacetamide compounds 1-6 described herein. Suspensions of EYPC LUVs containing the pH sensitive dye pyranine (ex 405 nm and 460 nm em 510 nm) in a phosphate buffer were used (0.5 mM of lipid, 10 mM NanH3-nPO4 n=1, 2, pH 6.4 100 mM NaCl inside and outside) (A) illustrates initial pseudo-first order rate constants in the presence of 5 μm of ionophores 1-6 (1 mol % injection of 20 μl of 0.5 mM DMSO solution of 1-6 into 1.9 mL of vesicular suspension was followed by injection of 21 μl of 0.5 M NaOH and final lysis of liposomes with Triton X-100; (B) illustrates initial pseudo-first order rate constants assessed for various concentrations of oligomeric ionophores 2-6. The same experimental protocol as in (A) was used. Legend for traces denotes use of oligocompounds 2, 3, 4, 5, 6.
Liposome Preparation for Fluorimetric Assays. Egg yolk L-α-phosphatidylcholine (EYPC ethanol solution, […], 79 μmol) was dissolved in a CHCl3/MeOH mixture, the solution was evaporated under reduced pressure and the resulting thin film was dried under high vacuum for 2 h. The lipid film was hydrated in 1.2 mL of phosphate buffer (10 mM sodium phosphate, pH=6.4, 75-100 mM MnX, M=N^+, K^+, X=Cl^−, SO4^2−, n=1,2) containing 10 μM HPTS (pyranine, 8-hydroxypyrene-1,3,6-trisulfonic acid trisodium salt) for 40 min. During hydration, the suspension was submitted to 5 freeze-thaw cycle (liquid nitrogen, water at rt). The large multilamellar liposome suspension (1 mL) was submitted to high-pressure extrusion at rt (21 extrusions through a 0.1 μm polycarbonate membrane afforded a suspension of LUVs with an average diameter of 100 nm). The LUV suspension was separated from extravesicular dye by size exclusion chromatography (SEC) (stationary phase: Sephadex G-10, mobile phase: phosphate buffer) and diluted with the same phosphate buffer to give a stock solution with a lipid concentration of 11 mM (assuming 100% of lipid was incorporated into liposomes).
pH-state transport assays. Typically, 100 μL of HPTS-loaded vesicles (stock solution) was suspended in 1.9 mL of the corresponding buffer and placed into a fluorimetric cell. The emission of HPTS at 510 nm was monitored with excitation wavelengths at 403 and 460 nm simultaneously. During the experiment, 20 μL of a 0-10 mM DMSO solution of the compounds of interest was added (through an injection port), followed by injection of 21 μL of 0.5 M aqueous NaOH. […] Maximal possible changes in dye emission were obtained at the end of each experiment by lysis of the liposomes with detergent (40 μL of 5% aqueous Triton X100). The final transport trace was obtained as a ratio of the emission intensities monitored at 460 and 403 nm and normalized to 100% of transport. Pseudo-first order rate constants were calculated from slopes of the plot of In([H^+ins]−[H^+out]) versus time, here [H^+ins] and [H^+out] are the intravesicular and extravesicular proton concentrations, respectively. The [H^+out] was assumed to remain constant over the course of the experiment, while [H^+ins] values were calculated for each point from the HPTS emission intensities according to the calibration equation pH=1.1684·log(Io/Il)+6.9807, where Io is the emission intensity with excitation at 460 nm and Il is emission intensity with excitation at 403 nm. The calibration was performed by measuring the HPTS emission intensities and the pH values of a […] HPTS solution in 10 mM phosphate buffer containing 100 mM NaCl (see FIG. s3). The absolute values for rate constants varied depending on the age of the vesicular solution and the actual stock solution of liposomes used.

Structures are written as SMILES.

Take `CCCCNC(=O)COc1c2cccc1Cc1cccc(c1OCC(=O)NCCCC)Cc1cccc(c1OCC(=O)NCCCC)Cc1cccc(c1OCC(=O)NCCCC)C2` [calix[4]arene tetrabutylamide 2, Calix[4]arene tetrabutylamide]: in the data set on HEK-293 cells (+120 mV), the “lavage time after which the current returned to the baseline” value is reported as 1.5 min. The “cells that responded at +80 mV” value with HEK-293 cells (NaCl buffer) is 3 of 15. The “damage to the cell membrane” value with HEK-293 cells (application/wash cycle) is “did not damage the cell membrane”. Further, the “holding potential at which current across the cell membrane was caused” value with HEK-293 cells (extracellular application, NaCl buffer) is recorded as “+120 mV”. For the same compound, in the data set with HEK-293 cells (holding potentials between −120 and +120 mV), the “current in isosmotic Na glutamate or Na2SO4 buffer” value is “no current across the membrane”.

For the compound `CCCCNC(=O)COc1ccccc1Cc1cccc(Cc2ccccc2OCC(=O)NCCCC)c1OCC(=O)NCCCC` [trimer 3, Tris-(N-butyl-2-phenoxyacetamide)], the “relative transport activity within the series 1-6” value in data set [1] (100 mM NaCl inside and outside) is “generally the most active”. The transport activity result in data set [1] (100 mM NaCl inside and outside, concentrations as low as 0.5 mol % (5 μm)) is “rapid exchange between extra- and intravesicular electrolytes”. Further, the “transport activity in liposomes symmetrically loaded with sodium sulfate” value in data set [1] (10 mol % (50 μm)) is listed as “no transport activity was detected”.
